According to patent US20030071268A1, “Optical data storage medium containing a diaza hemicyanine dye as the light-absorbing compound in the information layer” (priority 2001, published 2003):

What was measured:
Format in all cases: physicochemical
[1] = absorption spectra measured in solution
Experimental: (§1) For a recordable optical data storage medium according to the invention which is recorded on and read using light from a blue laser, such diaza hemicyanine dyes are preferred whose absorption maximum λmax2 is in the range from 420 to 550 nm, wherein the wavelength λ½ at which the extinction on the short-wavelength slope of the absorption maximum of the wavelength λmax2 is half the extinction value at λmax2, and the wavelength λ 1/10, at which the extinction on the short-wavelength slope of the absorption maximum of the wavelength λmax2 is a tenth of the extinction value at λmax2, are preferably in each case no further than 50 nm away from each other.
as §1, with “a red” for “a blue”, “from 500” for “from 420”, “to 650” for “to 550”, “the long-wavelength” for “the short-wavelength”, “50 mn” for “50 nm”, “other. […]” for “other.”
The absorption spectra are, for example, measured in solution.

[2] = solubility in TFP (2,2,3,3-tetrafluoropropanol)
[3] = film appearance
Text: In addition to the above-mentioned optical properties, the recordable information layer consisting of light-absorbing organic substances must have a morphology which is as amorphous as possible, in order to keep the noise signal during recording or reading as small as possible. For this purpose it is particularly preferable, when applying the substances by spin-coating from a solution or by vapour deposition and/or sublimation, to prevent crystallization of the light-absorbing substances during the subsequent top-coating with metallic or dielectric layers in vacuo.

Question: For `CC(C)N(c1n[n+](C)c(/N=N/c2sc(N3CCOCC3)nc2-c2ccccc2)s1)C(C)C` [Example 1], which ε ([1]; Example 1) is on record?
Answer: 30100 mol⁻¹ cm⁻¹

Question: What about the λmax ([1]; in methanol) of the same molecule?
Answer: 592 nm

Question: What about the Solubility [2] of the same molecule?
Answer: > 2%

Question: What about the film appearance [3] of the same molecule?
Answer: a glassy film
